According to patent US5547972A, “Therapeutic agents useful for treating inflammatory diseases” (The Boots Company PLC, priority 1991, dated 1996):
Where a name gives a salt, the structure may show the parent alone. Read-outs that look alike come from different tables or passages of the source.

Assays:
[1] = system: Carrageenan-induced rat paw oedema; test: Test B: Carrageenan-induced rat paw oedema test; format: in vivo, rat (female); conditions: inhibition of paw oedema, 1 h before carrageenan, 3 h after injection; for inhibition in vivo at 100 mg/kg: Rattus norvegicus, po, 3 h; for Test B % inhibition at 100 mg/kg: oral
Description: Carrageenan-induced rat paw oedema test
Female rats, weight range 125-150 g were fasted overnight. One of the hind legs of each animal was marked with a line at the connection between the cuboid/navicular and calcaneus/talus bones. Groups of six rats were orally dosed at 10 ml/kg, in random order, with a given dose of the test compound given as a solution or suspension in 10% (w/v) aqueous acacia solution.
One hour after dosing, 0.1 ml of 1% (w/v) sterile carrageenan λ in normal saline was injected deeply into the plantar surface of the marked hind foot of each rat. The volume of the foot (up to the marked line) was measured immediately after injection using duplicate water displacement readings. Three hours after injection the foot volume was measured again and the percentage increase in foot volume relative to the initial reading was calculated.
The increase in foot volume (i.e. the degree of oedema) in drug treated animals when compared with that in the drug untreated control gave the degree of inhibition of paw oedema by the drug.
Compounds were considered to be active in this test if they produced a 20% or greater inhibition of paw oedema in at least two out of three tests after oral dosing at 100 mg/kg. Statistical significance was assessed using the Student't test for single dose studies and Dunnett's test for multiple dose studies. More advantageous compounds were active in both Tests A and B,

[2] = system: Zymosan Stimulated Macrophaqes; test: Test A: Inhibition of Arachidonic Acid Release from Zymosan Stimulated Macrophages; format: cell-based, mouse (female MF1); conditions: inhibition of arachidonic acid release, six concentrations (100, 50, 20, 10, 5 and 1 μM), 5 h with zymosan, read-out: Test A IC50
Description: Inhibition of Arachidonic Acid Release from Zymosan Stimulated Macrophaqes
Female MF1 mice (weighing 20 to 25 g) were killed using a rising concentration of CO2. The mice were laid on their backs and the abdomens wiped with 70% alcohol. The skin was pulled back, exposing the peritoneal wall. Medium A (5 ml) (see below) was injected into the peritoneal cavity of each mouse followed by approximately 1 ml of air using a 20 ml syringe and a 21 G×40 mm needle in order to form a suspension of macrophage cells. The medium and cells were then removed using a 19 G×40 mm needle. The resulting suspension was returned to a sterile beaker kept on ice. The extracts from all the mice were pooled and this pooled cell suspension was counted using a Coulter counter and adjusted to a final cell count of 1-1.3×10^6 cells/ml prior to labelling with [^3 H]-arachidonic acid. Typically five mice provided sufficient cells for each multiwell plate.
Sufficient [^3 H]-arachidonic acid in ethanol to give a final concentration of 1.6 μCi/ml (equivalent to 40 μCi/plate) was blown to dryness under nitrogen. The arachidonic acid was then resuspended in 1 or 2 ml of the cell suspension which was then mixed with the remainder of the cell suspension in a centrifuge bottle. The labelled cell suspension was then plated out into sterile plastic 96 flat-bottomed well plates (250 μl per well) and incubated overnight at 37° C. in a moist atmosphere of 5% CO2, 95% air.
The following day, non-adherent cells were removed by washing 3 times with sterile phosphate buffered saline (PBS). The adherent peritoneal macrophages were then cultured for a further 24 hours in the presence or absence of drugs, in medium B (see below) at 37° in a 5% CO2 atmosphere in order to measure the effects of drugs on the spontaneous release of arachidonic acid in the absence of stimulus. After this incubation, supernatants were removed to give media 1 and stored in sealed multi-well plates at 4° C. prior to scintillation counting. Drugs which potentiated spontaneous release of arachidonic acid (125% of controls) were deemed to be toxic at the concentration at which this phenomenon occurred. The supernatants were replaced by fresh medium C containing fresh drug and a stimulus. Three drugs were tested at six concentrations (100, 50, 20, 10, 5 and 1 μM) in replicates of four on each plate. The other wells contained controls consisting of a positive control (e.g. dexamethasone), medium (B) only and medium C only.
Incubation was then continued for a further 5 hours, whereupon the supernatants were collected to give media 2 and the adherent cells washed with PBS. The cells were then lysed with 100 μl of 0.1% TRITON® X100 in a 0.1% solution of bovine serum albumin in 0.9% saline and mechanically disrupted to give cell lysates. These supernatants (media 2) and cell lysates (Cells) were also stored in sealed multi-well plates at 4° C. prior to scintillation counting. 200 μl aliquots of media, or 100 μl aliquots of cells were counted using 2 ml of OPTIPHASE "HIGH SAFE" (Trademark of LKB) as scintillant.
The percentage of arachidonic acid released was calculated using the mean values for each group of 4 wells in the following equation. [formula] cpm=courts per minute
The value for the arachidonic acid release in the absence of stimulus (spontaneous, cpm of media 2) from cells which had been exposed to neither stimulus nor drug was subtracted from all equivalent values (cpm media 2, stimulated with or without drug) to give the net stimulated release. The percentage inhibition of arachidonic acid release caused by a drug may then be calculated using the following equation. [formula]
Compounds of formula I were tested at six concentrations (100, 50, 20, 10, 5 and 1 μM) and IC50 values calculated. Compounds with IC50 values<100 μM are considered to be active. Advantageous compounds have an IC50 value <50 μM.
Medium A (for peritoneal lavage) […]

Row | SMILES | IC50 ([2]; Mus musculus, Macrophage, 5 h) [µM] | IC50 ([2]; dihydrochloride) [µM] | inhibition in vivo at 100 mg/kg [1] [%] | Test B % inhibition at 100 mg/kg [1] [%]
1 | CC(NCCCn1ccnc1)c1ccc(Cl)cc1 (stereo not shown) [Example 1, N-[1-(4-chlorophenyl)ethyl]-3-(imidazol-1-yl)propylamine dihydrochloride] | 55 | – | 59 | –
2 | CC(NCCCn1ccnc1)c1ccc(C(F)(F)F)cc1 (stereo not shown) [Example 11, 3-(Imidazol-1-yl)-N-[1-(4-trifluoromethylphenyl)ethyl]propylamine] | 45 | – | 34 | –
3 | CCOC(=O)c1c(C)ncn1CCCNC(C)(C)c1ccc(Cl)cc1 [Example 78, Ethyl 1-{3-[1-(4-chlorophenyl)-1-methylethylamino]propyl)-4-methylimidazole-5-carboxylate] | 20 | – | 7 | –
4 | CCC(NCCCn1ccnc1)c1ccc(Cl)cc1 (stereo not shown) [Example 30, N-[1-(4-chlorophenyl)propyl]-3-(imidazol-1-yl)propylamine oxalate] | 24 | – | 39 | –
5 | CC(NCCCn1ccnc1)c1ccc(Cl)cc1Cl (stereo not shown) [Example 2, N-[1-(2,4-Dichlorophenyl)ethyl]-3-(imidazol-1-yl)propylamine] | 39 | – | 37 | –
6 | COc1cc(C)c(CNCCCn2ccnc2)c(C)c1 [Example 50, 3-(imidazol-1-yl)-N-(4-methoxy-2,6-dimethylbenzyl)propylamine dihydrochloride] | 31 | – | 0 | –
7 | Cc1nccn1CCCNCc1ccc(Cl)cc1 [Example 43, N-(4-Chlorobenzyl)-3-(2-methylimidazol-1-yl)propylamine] | 49 | – | 33 | –
8 | CC(NCCCn1ccnc1)c1ccc(Cl)c(C(F)(F)F)c1 (stereo not shown) [Example 9, N-[1-(4-Chloro-3-trifluoromethylphenyl)ethyl]-3-(imidazol-1-yl)propylamine] | 22 | – | 78 | –
9 | Cc1cn(CCCNCc2ccc(Cl)cc2)cn1 [Example 44, N-(4-Chlorobenzyl)-3-(4-methylimidazol-1-yl)propylamine dihydrochloride] | 30 | – | 8 | –
10 | Cc1nccn1CCCNC(C)c1ccc(Cl)cc1 (stereo not shown) [Example 52, N-[1-(4-chlorophenyl)ethyl]-3-(2-methylimidazol-1-yl)propylamine] | – | – | – | 27
11 | CCCCOc1ccc(C(C)NCCCn2ccnc2)cc1 (stereo not shown) [Example 22, N-[1-(4-Butoxyphenyl)ethyl]-3-(imidazol-1-yl)propylamine dioxalate] | 21 | – | 17 | –
12 | COC(=O)c1ccc(CNCCCn2ccnc2C)cc1 [Example 49, methyl 4-[3-(2-methylimidazol-1-yl)propylaminomethyl]benzoate] | 45 | – | 0 | –
13 | CCC(CC)(NCCCn1ccnc1)c1ccccc1 [Example 80, N-(1-Ethyl-1-phenylpropyl)-3-(imidazol-1-yl)propylamine] | 54 | – | 52 | –
14 | CCC(c1ccc(Cl)cc1)N(C)CCCn1ccnc1 (stereo not shown) [Example 91, N-[1-(4-chlorophenyl)propyl]-3-(imidazol-1-yl)-N-methylpropylamine] | 62 | – | 58 | –
15 | CC(C)(NCCCn1ccnc1)c1ccc(Cl)cc1.Cl.Cl [68 (2), N-[1-(4-chlorophenyl)-1-methylethyl]-3-(imidazol-1-yl)propylamine dihydrochloride] | – | 43 | – | 70
16 | CC(NCCCn1ccnc1)c1ccc(Br)cc1 (stereo not shown) [Example 14, N-[1-(4-Bromophenyl)ethyl]-3-(imidazol-1-yl)propylamine] | 60 | – | 60 | –

Further molecules by falling IC50 ([2]; Mus musculus, Macrophage, 5 h), results first:

Row | IC50 ([2]; Mus musculus, Macrophage, 5 h) [µM] | IC50 ([2]; dihydrochloride) [µM] | SMILES | inhibition in vivo at 100 mg/kg [1] [%] | Test B % inhibition at 100 mg/kg [1] [%]
17 | 18 | – | CC(NCCCn1cnc(Cl)c1Cl)c1ccc(Cl)cc1 (stereo not shown) [Example 67, N-[1-(4-Chlorophenyl)ethyl]-3-(4,5-dichloroimidazol-1-yl)propylaminesesquihydrochloride] | 42 | –
18 | 16 | – | Clc1ccc(C2(NCCCn3ccnc3)CC2)cc1 [Example 82, N-[1-(4-Chlorophenyl)cycloprop-1-yl]-3-(imidazol-1-yl)propylamine dihydrochloride] | 38 | –
19 | 16 | – | CC(NCCCn1ccnc1)c1ccc(Cl)cc1 (single isomer, unassigned; (+)) [Example 56, (+) N-[1-(4-Chlorophenyl)ethyl]-3-(imidazol-1-yl)propylamine dihydrochloride] | 57 | –
20 | 15 | – | CCC(CC)(NCCCn1ccnc1)c1ccc(Cl)cc1 [Example 76, 1-(4-Chlorophenyl)-1-ethyl-3'-(imidazol-1-yl)dipropylamine dihydrochloride] | 31 | –
21 | 13 | – | CC(NCCCn1ccnc1)c1ccc(Cl)c(Cl)c1Cl (stereo not shown) [Example 13, N-[1-(2,3,4-Trichlorophenyl)ethyl]-3-(imidazol-1-yl)propylamine dihydrochloride] | 70 | –
22 | 12 | – | CC(NCCCn1ccnc1)c1ccc(C(C)(C)C)cc1 (stereo not shown) [Example 19, N-[1-(4-Tert-butylphenyl)ethyl]-3-(imidazol-1-yl)propylamine] | 27 | –
23 | 11 | – | Cc1ncn(CCCNC(C)(C)c2ccc(Cl)cc2)c1C [Example 70, N-[1-(4-Chlorophenyl)-1-methylethyl]-3-(4,5-dimethylimidazol-1-yl)propylamine] | 21 | –
24 | 11 | – | Clc1ccc(C(NCCCn2ccnc2)c2ccccc2)cc1 (stereo not drawn) [Example 28, N-[α-(4-chlorophenyl)benzyl]-3-(imidazol-1-yl)propylamine] | 48 | –
25 | 10 | – | Cc1cn(CCCNC(C)c2ccc(Cl)cc2)c(C)n1 (stereo not shown) [Example 31, N-[1-(4-chlorophenyl)ethyl]-3-(2,4-dimethylimidazol-1-yl)propylamine dihydrochloride] | 25 | –
26 | 10 | – | Cc1cn(CCCNC(C)c2ccc(Cl)cc2)c(-c2ccccc2)n1 (stereo not shown) [Example 33, N-[1-(4-chlorophenyl)ethyl]-3-(4-methyl-2-phenyl-imidazol-1-yl)propylamine] | 2 | –
27 | 9 | – | Cc1nccn1CCCNC(C)(C)c1ccc(Cl)cc1 [Example 60, N-[1-(4-chlorophenyl)-1-methylethyl]-3-(2-methylimidazol-1-yl)propylamine] | 59 | –
28 | 6 | – | Cc1cn(CCCNC(C)c2ccc(Cl)cc2)c(Cc2ccccc2)n1 (stereo not shown) [Example 32, 3-[2-benzyl-4-methylimidazol-1-yl]-N-[1-(4-chlorophenyl)ethyl]propylamine] | 35 | –
